In PMC6081593, “Cytotoxic and Apoptotic Effects of Govaniadine Isolated from Corydalis govaniana Wall. Roots on Human Breast Cancer (MCF-7) Cells” (BioMed Research International, 2018):
Read-outs that look alike come from different tables or passages of the source.

Key:
MCF-7 cells [1] = experiment: SRB in vitro cytotoxicity assay, MCF-7; assay type: cell-based, human; conditions: for IC50: Homo sapiens, MCF7, SRB assay, read-out: IC50 (dose causing 50% inhibition) of MCF-7 cells
Experimental: (§1) Human breast cancer cell line [MCF-7, ER^+ (ATCC, HTB-22TM)] was cultured in Dulbecco's Modified Eagle Medium (DMEM) (Invitrogen, Carlsbad, CA, USA) supplemented with 10% Fetal bovine serum (FBS), 100 U/mL of penicillin, 0.1 mg/mL streptomycin, and 0.01 mg/mL insulin. Normal mammary epithelial cell line [MCF-10A (ATCC® CRL-10317)] was grown in Mammary Epithelium Basal Medium (MEBM) (Lonza, Walkersville, MD, USA). Both MCF-7 and MCF-10A cells were maintained in a humidified incubator at 37°C with 5% CO2. All the cell lines and 10% FBS were purchased from the American type cell culture (ATCC), Rockville, MD, USA. All chemicals were purchased from Sigma-Aldrich (St. Louis, MO, USA) unless otherwise specified.
(§2) MCF-7 and MCF-10A cells were trypsinized using […] trypsin/EDTA, plated in cell culture treated 96-well plates (5 x 10^3 cells/ well) and incubated for 24 h. After incubation, cells were treated with govaniadine (1, 2, 4, 8, or 16 μM) and maintained at 37°C with CO2 for 24, 48, or 72 h. After the incubation period, Sulforhodamine B (SRB) assay was performed as described previously to assess cell viability. Absorbance was read at optical density (OD) 540 nm (Synergy™ HT, BioTek, USA) and percentage cell viability was calculated. Negative controls contained only 0.1% DMSO and medium whereas paclitaxel was used as the positive control.

MCF-10A cells = experiment: SRB in vitro cytotoxicity assay, MCF-10A; assay type: cell-based; conditions: Homo sapiens, read-out: IC50 against MCF-10A cells
Experimental: as §1, §2

caspase-7 = experiment: Caspase-Glo 3/7 assay of caspase 7 activity in MCF-7 cells; assay type: cell-based, human; conditions: 1 μM (P<0.05) and 2 μM (P<0.01), 24 h, vs control
Experimental: MCF-7 cells (2 x 10^5 cells/mL) were seeded in 96-well plates and maintained for 24 h at 37°C in 5% CO2. After 24 h, cells were exposed to govaniadine (1 and 2 μM) for further 24 h. Control cells were treated with 0.1% DMSO. Caspase-Glo® 3/7 assay (Promega, Madison, WI, USA) was used to measure caspase 7 activity according to the manufacturer's instructions, and luminescence was measured using a luminescence plate reader (Synergy™ HT, BioTek, USA).

p53 mRNA = experiment: RT-qPCR p53 mRNA expression in MCF-7 cells; assay type: cell-based, human; conditions: 24 h incubation
Experimental: (§3) Cells were grown in T25 flasks (2 x 10^5 cells/mL) for 24 h at 37°C in 5% CO2 and treated with govaniadine (1 and 2 μM) in triplicate and incubated for further 24 h. Control cells were treated with 0.1% DMSO. After 24 h, cells were harvested and total RNA was extracted with TRIzol® Reagent (Invitrogen; Thermo Fisher Scientific, Inc., Carlsbad, CA, USA) according to the manufacturer's protocol. cDNA synthesis and RT-qPCR were performed as described previously. RT-qPCR was performed in Stratagene Mx3000P real time PCR machine using MESA Green qPCR Master Mix Plus for SYBR Assay (Eurogentec, Seraing, Liège, Belgium). Data were normalized to an internal reference gene GAPDH, and relative gene expression was assessed using the comparative Ct method (2^−ΔΔCt).

Bax mRNA = experiment: RT-qPCR Bax mRNA expression in MCF-7 cells; assay type: cell-based, human; conditions: 24 h incubation
Experimental: as §3

Survivin mRNA = experiment: RT-qPCR survivin mRNA expression in MCF-7 cells; assay type: cell-based, human; conditions: 24 h incubation
Experimental: as §3

MCF-7 cells [2] = experiment: Annexin V/PI flow cytometry apoptosis detection; assay type: cell-based, human; conditions: 24 h; for early apoptotic cells: upper left quadrant; for late apoptotic cells: upper right quadrant
Experimental: MCF-7 cells (2x10^5 cell/mL) cultured in T25 cell culture flasks for 24 h at 37°C in 5% CO2 were exposed to govaniadine (4, 8, and 16 μM) for further 24 h. Control cells were treated with 0.1% DMSO. After 24 h, apoptosis mediated by the govaniadine on MCF-7 cells was detected by the Annexin V/ Propidium Iodide (PI) apoptosis detection kit (Santa Cruz, Texas, USA) according to the manufacturer's instructions by using a Partec Cyflow® Cube 6 Flow Cytometer. The data was analyzed with De Novo FCS Express version 4 software, and all experiments to detect apoptosis were done in triplicate.

MCF-7 cells [3] = experiment: DNA fragmentation analysis (gel electrophoresis); assay type: cell-based, human; conditions: MCF-7 cells, 4, 8, 16 μM, 48 or 72 h
Experimental: MCF-7 cells (2x10^5 cell/mL) were treated with 4, 8, and 16 μM doses of govaniadine incubated for 48 or 72 h, respectively. Medium containing 0.1% DMSO and thymoquinone were used as negative and positive controls, respectively. After the incubation period, DNA fragmentation was analyzed as described by. Gel electrophoresis was carried out with extracted DNA and visualized under UV light to assess the effect on DNA fragmentation (Quantum-ST4 1100/20 M; Fisher Biotec Pty Ltd., Wembley, Australia) following electrophoresis on a 2.0% agarose gel stained with ethidium bromide (EB).

MCF-7 cells [4] = experiment: Reactive oxygen species (NBT) assay; assay type: cell-based, human; conditions: 1 and 2 μM, 24 h, vs control
Experimental: MCF-7 cells were seeded (2x10^5 cell/mL) in 96-well plates for 24 h at 37°C in 5% CO2. After 24 h, MCF-7 cells were treated with govaniadine (1 and 2 μM) in triplicate and incubated for 24 h. Control cells were treated with 0.1% DMSO. An assay for the intracellular conversion of nitro blue tetrazolium (NBT) to formazan by superoxide anion was used to measure the generation of reactive oxygen species in cells. NTB was subsequently added at a final concentration of 1.2 mM to the wells and incubated in the dark for 1 h at 37°C. The formazan content of the cells was then solubilized with […] of DMSO, and the absorbance was measured at OD 630 nm (Synergy™ HT Multi-Mode Microplate Reader).

MCF-7 cells [5] = experiment: Intracellular glutathione (GSH) measurement; assay type: cell-based, human; conditions: 1 and 2 μM, 24 h, vs control
Experimental: (§4) MCF-7 cells were seeded (2x10^5 cell/mL) in 24-well plates and maintained for 24 h at 37°C in 5% CO2. Then the cells were exposed to different concentrations of govaniadine (1 and 2 μM) for further 24 h. Control cells were treated with 0.1% DMSO. After 24 h, cells were trypsinized and pelleted. Cell suspension of approximately 10^6 cells per mL in an appropriate buffer was prepared and homogenized using sonication in ice. Cell homogenate was transferred to 1.5 mL eppendorf tubes and centrifuged at 15,000 rpm for 10 min at 4°C. The resulting supernatant (cell lysate) was transferred to a new 1.5 mL micro centrifuge tube and kept on ice. Total amount of protein present in the cell lysate was determined using bovine serum albumin (BSA) as the standard. Reduced GSH was estimated as described previously. The activity of GST was determined as described by. Intracellular GSH and GST levels were expressed as μM/mg of cell lysate protein.

MCF-7 cells [6] = experiment: Intracellular glutathione S-transferase (GST) measurement; assay type: cell-based, human; conditions: 1 and 2 μM, 24 h, vs control
Experimental: as §4

MCF-7 cells [7] = experiment: Cell morphology by phase contrast light microscopy; assay type: cell-based, human; conditions: 1-16 μM, 24, 48 and 72 h
Experimental: To determine the effect of govaniadine on the morphology of MCF-7 cells, cells (2x10^5 cells/mL) maintained in DMEM for 24 h were exposed to different concentrations (1, 2, 4, 8, and 16 μM) of govaniadine for further 24, 48, or 72 h at 37°C in 5% CO2. Control cells were treated with 0.1% DMSO. After the incubation period, morphological changes of the cells were observed and photographed on an inverted phase contrast microscope (Olympus CKX41SF, Japan).

MCF-7 cells [8] = experiment: Cell morphology and nuclear changes by AO/EB and Hoechst staining; assay type: cell-based, human; conditions: 2-16 μM, 24 h
Experimental: MCF-7 cells harvested by trypsinization upon reaching 70-80% confluence were seeded (5x10^4 cells/well) on cell culture treated cover slips placed in a 24-well cell culture plate and exposed to different concentrations (2, 4, 8, and 16 μM) of govaniadine for 24 h at 37°C in 5% CO2. Control cells were treated with 0.1% DMSO. After 24 h, cells were fixed with 4% formaldehyde, and AO/EB solution (10 μL) and Hoechst stain (0.005 mg/mL, 10 μL) were added for 2–5 min. Cells were then observed under a fluorescence microscope (Olympus Co., Tokyo, BX51TRF, Japan).

## COc1ccc2c(c1O)C1Cc3cc4c(cc3CN1CC2)OCO4 (stereo not drawn) [govaniadine]
MCF-7 cells [1]; 24 h postincubation
  IC50: 3.05 ± 0.27 µM
MCF-7 cells [1]; 48 h postincubation
  IC50: 2.52 ± 0.31 µM
MCF-7 cells [1]; 72 h postincubation
  IC50: 1.6 ± 0.23 µM
MCF-7 cells [1]; comparison of IC50 values in MCF-7 and MCF-10A with reference drug
  Selectivity of cytotoxicity, MCF-7 versus MCF-10A cells: more selective towards MCF-7 cells than the paclitaxel
MCF-10A cells; 24 h postincubation
  IC50: 269 ± 0.25 µM
MCF-10A cells; 48 h postincubation
  IC50: 223.4 ± 0.32 µM
MCF-10A cells; 72 h postincubation
  IC50: 194.9 ± 0.24 µM
caspase-7
  Caspase-7 activity: activated significantly
p53 mRNA; 1 μM
  p53 mRNA fold change: 11.37 fold
p53 mRNA; 2 μM
  p53 mRNA fold change: 15.42 fold
Bax mRNA; 1 μM
  Bax mRNA fold change: 5.07 fold
Bax mRNA; 2 μM
  Bax mRNA fold change: 11.66 fold
Survivin mRNA; 1 μM
  survivin mRNA fold increase: 9.08 fold
Survivin mRNA; 2 μM
  survivin gene expression: not regulated
MCF-7 cells [2]; 4 μM
  early apoptotic cells: 3.31%
  late apoptotic cells: 11.15%
MCF-7 cells [2]; 16 μM
  early apoptotic cells: 7.33%
  late apoptotic cells: 41.42%
MCF-7 cells [2]; Homo sapiens, MCF7, 4 μM, lower left quadrant, read-out: intact viable cells
  viability at 4 µM: 78.6%
MCF-7 cells [2]; Homo sapiens, MCF7, 8 μM, lower left quadrant, read-out: intact viable cells
  viability at 8 µM: 61.1%
MCF-7 cells [2]; Homo sapiens, MCF7, 16 μM, lower left quadrant, read-out: intact viable cells
  viability at 16 µM: 36.8%
MCF-7 cells [3]
  DNA fragmentation: DNA fragmentation in a time- and dose-dependent manner
MCF-7 cells [4]
  ROS production: dose-dependent significant (p<0.05) increase
MCF-7 cells [5]
  Intracellular GSH level: decreased significantly
MCF-7 cells [6]
  GST level: increased significantly
MCF-7 cells [7]
  Morphological changes (phase contrast microscopy): increased the number of apoptotic cells
MCF-7 cells [8]
  Nuclear changes (Hoechst 33258 staining): Nuclei with brighter hypercondensed chromatin

## CC(=O)O[C@H]1C(=O)[C@@]2(C)[C@H]([C@H](OC(=O)c3ccccc3)[C@]3(O)C[C@H](OC(=O)[C@H](O)[C@@H](NC(=O)c4ccccc4)c4ccccc4)C(C)=C1C3(C)C)[C@]1(OC(C)=O)CO[C@@H]1C[C@@H]2O [paclitaxel, reference compound]
MCF-7 cells [1]; 24 h postincubation
  IC50: 2.21 ± 0.15 µM
MCF-7 cells [1]; 48 h postincubation
  IC50: 0.13 ± 0.05 µM
MCF-7 cells [1]; 72 h postincubation
  IC50: 0.0089 ± 0.006 µM
MCF-10A cells; 24 h postincubation
  IC50: 11.9 ± 1.5 µM
MCF-10A cells; 48 h postincubation
  IC50: 6.06 ± 2.45 µM
MCF-10A cells; 72 h postincubation
  IC50: 3.11 ± 1.98 µM
